Test results published in US20100099561A1, “HETEROBICYCLIC ALKYLTHIO-BRIDGED ISOXAZOLINES” (E.I. DU PONT DE NEMOURS AND COMPANY, priority 2008, published 2010).

Assays:
Type in all cases: in vivo
Settings in all cases: 21 days, scale 0 to 100
[1] = tested on: winter wheat (Triticum aestivum); assay: Test C preemergence, winter wheat
Excerpt: (§1) Seeds of plant species selected from annual bluegrass (Poa annua), blackgrass (Alopecurus myosuroides), canarygrass (Phalaris minor), gallium, (catchweed bedstraw, Galium aparine), chickweed (Stellaria media), downy bromegrass (Bromus tectorum), field poppy (Papaver rhoeas), field violet (Viola arvensis), green foxtail (Setaria viridis), deadnettle (henbit deadnettle, Lamium amplexicaule), Italian ryegrass (Lolium multiflorum), kochia (Kochia scoparia), lambsquarters (Chenopodium album), oilseed rape (Brassica napus), pigweed (Amaranthus retroflexus), Russian thistle (Salsola kali), spring barley (Hordeum vulgare), spring wheat (Triticum aestivum), wild buckwheat (Polygonum convolvulus), wild mustard (Sinapis arvensis), wild oat (Avena fatua), wild radish (Raphanus raphanistrum), windgrass (Apera spica-venti), winter barley (Hordeum vulgare), and winter wheat (Triticum aestivum) were planted and treated preemergence with test chemicals formulated in a non-phytotoxic solvent mixture which included a surfactant.
(§2) Treated plants and controls were maintained in a controlled growth environment for 21 days after which time all species were compared to controls and visually evaluated. Plant response ratings, summarized in Table C, are based on a scale of 0 to 100 where 0 is no effect and 100 is complete control. A dash (-) response means no test result.

[2] = tested on: spring wheat (Triticum aestivum); assay: Test C preemergence, spring wheat
Excerpt: as §1, §2

[3] = tested on: Italian ryegrass (Lolium multiflorum); assay: Test C preemergence, Italian ryegrass
Excerpt: as §1, §2

[4] = tested on: blackgrass (Alopecurus myosuroides); assay: Test C preemergence, blackgrass
Excerpt: as §1, §2

[5] = tested on: spring barley (Hordeum vulgare); assay: Test C preemergence, spring barley
Excerpt: as §1, §2

[6] = tested on: field violet (Viola arvensis); assay: Test C preemergence, field violet
Excerpt: as §1, §2

[7] = tested on: Russian thistle (Salsola kali); assay: Test C preemergence, Russian thistle
Excerpt: as §1, §2

[8] = tested on: green foxtail (Setaria viridis); assay: Test C preemergence, green foxtail
Excerpt: as §1, §2

[9] = tested on: canarygrass (Phalaris minor); assay: Test C preemergence, canarygrass
Excerpt: as §1, §2

[10] = tested on: wild mustard (Sinapis arvensis); assay: Test C preemergence, wild mustard
Excerpt: as §1, §2

[11] = tested on: kochia (Kochia scoparia); assay: Test C preemergence, kochia
Excerpt: as §1, §2

[12] = tested on: wild radish (Raphanus raphanistrum); assay: Test C preemergence, wild radish
Excerpt: as §1, §2

[13] = tested on: field poppy (Papaver rhoeas); assay: Test C preemergence, field poppy
Excerpt: as §1, §2

[14] = tested on: wild oat (Avena fatua); assay: Test C preemergence, wild oat
Excerpt: as §1, §2

[15] = tested on: lambsquarters (Chenopodium album); assay: Test C preemergence, lambsquarters
Excerpt: as §1, §2

[16] = tested on: downy bromegrass (Bromus tectorum); assay: Test C preemergence, downy bromegrass
Excerpt: as §1, §2

[17] = tested on: pigweed (Amaranthus retroflexus); assay: Test C preemergence, pigweed
Excerpt: as §1, §2

[18] = tested on: wild buckwheat (Polygonum convolvulus); assay: Test C preemergence, wild buckwheat
Excerpt: as §1, §2

CC1(C)CC(S(=O)(=O)Cc2c(C(F)(F)F)nc3n(c2=O)CCS3)=NO1 [Compound 6]
30: Plant response rating, Oat, Wild ([14]; 250 g ai/ha)
40: Plant response rating, Field Poppy ([13]; 31 g ai/ha)
95: Plant response rating, Ryegrass, Italian ([3]; 250 g ai/ha)
90: Plant response rating, Field Poppy ([13]; 125 g ai/ha)
50: Plant response rating, Field Poppy ([13]; 62 g ai/ha)
20: Plant response rating, Wheat, Winter ([1]; 250 g ai/ha) | Plant response rating, Barley, Spring ([5]; 31 g ai/ha) | Plant response rating, Barley, Spring ([5]; 62 g ai/ha) | Plant response rating, Barley, Spring ([5]; 125 g ai/ha) | Plant response rating, Barley, Spring ([5]; 250 g ai/ha) | Plant response rating, Foxtail, Green ([8]; 125 g ai/ha) | Plant response rating, Oat, Wild ([14]; 31 g ai/ha)
15: Plant response rating, Wheat, Spring ([2]; 250 g ai/ha) | Plant response rating, Ryegrass, Italian ([3]; 62 g ai/ha) | Plant response rating, Ryegrass, Italian ([3]; 125 g ai/ha)
0: Plant response rating, Wheat, Winter ([1]; 31 g ai/ha) | Plant response rating, Wheat, Winter ([1]; 62 g ai/ha) | Plant response rating, Wheat, Winter ([1]; 125 g ai/ha) | Plant response rating, Wheat, Spring ([2]; 31 g ai/ha) | Plant response rating, Wheat, Spring ([2]; 62 g ai/ha) | Plant response rating, Wheat, Spring ([2]; 125 g ai/ha) | Plant response rating, Ryegrass, Italian ([3]; 31 g ai/ha) | Plant response rating, Field Violet ([6]; 31 g ai/ha) | Plant response rating, Field Violet ([6]; 62 g ai/ha) | Plant response rating, Field Violet ([6]; 125 g ai/ha) | Plant response rating, Field Violet ([6]; 250 g ai/ha) | Plant response rating, Russian Thistle ([7]; 31 g ai/ha) | Plant response rating, Russian Thistle ([7]; 62 g ai/ha) | Plant response rating, Russian Thistle ([7]; 125 g ai/ha) | Plant response rating, Mustard, Wild ([10]; 31 g ai/ha) | Plant response rating, Mustard, Wild ([10]; 62 g ai/ha) | Plant response rating, Mustard, Wild ([10]; 125 g ai/ha) | Plant response rating, Mustard, Wild ([10]; 250 g ai/ha) | Plant response rating, Kochia ([11]; 31 g ai/ha) | Plant response rating, Kochia ([11]; 62 g ai/ha) | Plant response rating, Kochia ([11]; 125 g ai/ha) | Plant response rating, Kochia ([11]; 250 g ai/ha) | Plant response rating, Radish, Wild ([12]; 31 g ai/ha) | Plant response rating, Radish, Wild ([12]; 62 g ai/ha) | Plant response rating, Radish, Wild ([12]; 125 g ai/ha) | Plant response rating, Radish, Wild ([12]; 250 g ai/ha) | Plant response rating, Lambsquarters ([15]; 31 g ai/ha) | Plant response rating, Lambsquarters ([15]; 62 g ai/ha) | Plant response rating, Lambsquarters ([15]; 125 g ai/ha) | Plant response rating, Bromegrass, Downy ([16]; 31 g ai/ha) | Plant response rating, Bromegrass, Downy ([16]; 62 g ai/ha) | Plant response rating, Pigweed ([17]; 31 g ai/ha) | Plant response rating, Pigweed ([17]; 62 g ai/ha) | Plant response rating, Pigweed ([17]; 125 g ai/ha) | Plant response rating, Buckwheat, Wild ([18]; 31 g ai/ha) | Plant response rating, Buckwheat, Wild ([18]; 62 g ai/ha) | Plant response rating, Buckwheat, Wild ([18]; 125 g ai/ha) | Plant response rating, Buckwheat, Wild ([18]; 250 g ai/ha)
25: Plant response rating, Oat, Wild ([14]; 62 g ai/ha) | Plant response rating, Oat, Wild ([14]; 125 g ai/ha) | Plant response rating, Bromegrass, Downy ([16]; 125 g ai/ha)
98: Plant response rating, Blackgrass ([4]; 125 g ai/ha)
100: Plant response rating, Field Poppy ([13]; 250 g ai/ha) | Plant response rating, Pigweed ([17]; 250 g ai/ha)
35: Plant response rating, Canarygrass ([9]; 125 g ai/ha) | Plant response rating, Lambsquarters ([15]; 250 g ai/ha) | Plant response rating, Bromegrass, Downy ([16]; 250 g ai/ha)

CC1(C)CC(S(=O)(=O)Cc2c(C(F)(F)F)nc3n(c2=O)CCCC3)=NO1 [Compound 8, 3-[[(4,5-dihydro-5,5-dimethyl-3-isoxazolyl)sulfonyl]methyl]-6,7,8,9-tetrahydro-2-(trifluoromethyl)-4H-pyrido[1,2-α]pyrimidin-4-one]
30: Plant response rating, Mustard, Wild ([10]; 62 g ai/ha)
20: Plant response rating, Blackgrass ([4]; 62 g ai/ha) | Plant response rating, Canarygrass ([9]; 125 g ai/ha)
35: Plant response rating, Blackgrass ([4]; 125 g ai/ha)
75: Plant response rating, Field Poppy ([13]; 125 g ai/ha)
90: Plant response rating, Field Violet ([6]; 125 g ai/ha)
100: Plant response rating, Mustard, Wild ([10]; 125 g ai/ha)
60: Plant response rating, Foxtail, Green ([8]; 125 g ai/ha)
50: Plant response rating, Field Poppy ([13]; 62 g ai/ha)
15: Plant response rating, Foxtail, Green ([8]; 62 g ai/ha)
0: Plant response rating, Wheat, Winter ([1]; 16 g ai/ha) | Plant response rating, Wheat, Winter ([1]; 31 g ai/ha) | Plant response rating, Wheat, Winter ([1]; 62 g ai/ha) | Plant response rating, Wheat, Winter ([1]; 125 g ai/ha) | Plant response rating, Wheat, Spring ([2]; 16 g ai/ha) | Plant response rating, Wheat, Spring ([2]; 31 g ai/ha) | Plant response rating, Wheat, Spring ([2]; 62 g ai/ha) | Plant response rating, Wheat, Spring ([2]; 125 g ai/ha) | Plant response rating, Ryegrass, Italian ([3]; 16 g ai/ha) | Plant response rating, Ryegrass, Italian ([3]; 31 g ai/ha) | Plant response rating, Ryegrass, Italian ([3]; 62 g ai/ha) | Plant response rating, Ryegrass, Italian ([3]; 125 g ai/ha) | Plant response rating, Blackgrass ([4]; 16 g ai/ha) | Plant response rating, Blackgrass ([4]; 31 g ai/ha) | Plant response rating, Barley, Spring ([5]; 16 g ai/ha) | Plant response rating, Barley, Spring ([5]; 31 g ai/ha) | Plant response rating, Barley, Spring ([5]; 62 g ai/ha) | Plant response rating, Barley, Spring ([5]; 125 g ai/ha) | Plant response rating, Field Violet ([6]; 16 g ai/ha) | Plant response rating, Field Violet ([6]; 31 g ai/ha) | Plant response rating, Field Violet ([6]; 62 g ai/ha) | Plant response rating, Russian Thistle ([7]; 16 g ai/ha) | Plant response rating, Russian Thistle ([7]; 31 g ai/ha) | Plant response rating, Russian Thistle ([7]; 62 g ai/ha) | Plant response rating, Russian Thistle ([7]; 125 g ai/ha) | Plant response rating, Foxtail, Green ([8]; 16 g ai/ha) | Plant response rating, Foxtail, Green ([8]; 31 g ai/ha) | Plant response rating, Canarygrass ([9]; 16 g ai/ha) | Plant response rating, Canarygrass ([9]; 31 g ai/ha) | Plant response rating, Canarygrass ([9]; 62 g ai/ha) | Plant response rating, Mustard, Wild ([10]; 16 g ai/ha) | Plant response rating, Mustard, Wild ([10]; 31 g ai/ha) | Plant response rating, Kochia ([11]; 16 g ai/ha) | Plant response rating, Kochia ([11]; 31 g ai/ha) | Plant response rating, Kochia ([11]; 62 g ai/ha) | Plant response rating, Kochia ([11]; 125 g ai/ha) | Plant response rating, Field Poppy ([13]; 16 g ai/ha) | Plant response rating, Field Poppy ([13]; 31 g ai/ha) | Plant response rating, Oat, Wild ([14]; 16 g ai/ha) | Plant response rating, Oat, Wild ([14]; 31 g ai/ha) | Plant response rating, Oat, Wild ([14]; 62 g ai/ha) | Plant response rating, Oat, Wild ([14]; 125 g ai/ha) | Plant response rating, Lambsquarters ([15]; 16 g ai/ha) | Plant response rating, Lambsquarters ([15]; 31 g ai/ha) | Plant response rating, Lambsquarters ([15]; 62 g ai/ha) | Plant response rating, Lambsquarters ([15]; 125 g ai/ha) | Plant response rating, Bromegrass, Downy ([16]; 16 g ai/ha) | Plant response rating, Bromegrass, Downy ([16]; 31 g ai/ha) | Plant response rating, Bromegrass, Downy ([16]; 62 g ai/ha) | Plant response rating, Bromegrass, Downy ([16]; 125 g ai/ha) | Plant response rating, Pigweed ([17]; 16 g ai/ha) | Plant response rating, Pigweed ([17]; 31 g ai/ha) | Plant response rating, Pigweed ([17]; 62 g ai/ha) | Plant response rating, Pigweed ([17]; 125 g ai/ha) | Plant response rating, Buckwheat, Wild ([18]; 16 g ai/ha) | Plant response rating, Buckwheat, Wild ([18]; 31 g ai/ha) | Plant response rating, Buckwheat, Wild ([18]; 62 g ai/ha)
